Assay results as given in article PMC9848351, “Discovery of new pyridine-quinoline hybrids as competitive and non-competitive PIM-1 kinase inhibitors with apoptosis induction and caspase 3/7 activation capabilities” (Journal of Enzyme Inhibition and Medicinal Chemistry, 2023).

Assays:
[1] = system: liver cancer cell line (HepG-2); experiment: MTT anticancer activity, HepG-2; format: cell-based, human; conditions: Homo sapiens, HepG2; HepG-2, 72 h, MTT; mean ± SEM
Method: (§1) Anticancer effect of the above-mentioned compounds was evaluated using four human cancer cell lines. Colon cancer cells (Caco-2), myeloid leukaemia cell line (NFS-60), liver cancer cell line (HepG-2) and prostate cancer cell line (PC-3) using MTT method was used for assaying cell viability[26] (Supplementary Page S55).
(§2) All final compounds were evaluated against four human cancer cell lines namely; liver cancer (HepG2) (ATCC® HB-8065™), colon cancer (Caco-2) (ATCC® HTB-37™), leukaemia cancer (NFS-60) (ATCC® CRL-1838™), and prostate cancer (PC-3) (ATCC® CRL-1435™) using doxorubicin (Dox) as the reference drug being widely used in tumour management utilising microculture MTT assay, declared by Mosmann[26] (Table 1 in Supplementary Material, Figures 5–8). […]
(§3) MTT method was used for assaying cell viability 25. Twenty microliters of 5 mg/ml MTT (Sigma, USA) was added to each well and the plate was incubated at 37 °C for 3 h. Then MTT solution was removed, 100 µl DMSO was used and the absorbance of each well was measured with a microplate reader ( BMG LabTech, Germany) at 570 nm. The effective concentration (IC 50) and safe dose (EC100) values of the tested compounds that cause 50% and 100% cell viability were estimated by the Graphpad Instat software.
(§4) Determination of the anticancer activity
(§5) Anticancer effect of the above-mentioned compounds was evaluated using four human cancer cell lines. Colon cancer cells (Caco-2) were maintained in DMEM (Lonza, USA) containing 10% FBS while myeloid leukemia cell line (NFS-60), liver cancer cell line (HepG-2) and prostate cancer cell line (PC-3) were cultured in RPMI-1640 (Lonza, USA) supplemented with 10% FBS. All cancer cells (5x10^3 cells/well) were seeded in sterile 96-well plates. After 24h, serial concentrations of the tested compounds and Dox were incubated with four cancer cell lines for 72 h at 37 °C in 5% CO2 incubator. MTT method was done as described above. The Graphpad Instat software was used for calculating the half maximal inhibitory concentration (IC50) values. Furthermore, phase contrast inverted microscope with a digital camera (Olympus, Japan) was used for investigating […]
(§6) safest anticancer compounds. […]

PIM-2 kinase = PIM-2 kinase (Homo sapiens, UniProt Q9P1W9); experiment: PIM-2 kinase inhibitory activity (Promega kinase assay kit)
From the text: (§14) PIM-1 and PIM-2 kinase inhibitory activity
(§15) PIM-1 and PIM-2 kinase utilizing PIM-1 and PIM-2 Kinase Assay Kit – Promega Corporation catalog #V4032, following the manufacturer’s instructions 26

[2] = system: myeloid leukaemia cell line (NFS-60); experiment: MTT anticancer activity, NFS-60; format: cell-based; conditions: NFS-60, 72 h, MTT; mean ± SEM
Method: as §1, §2, §3, §4, §5, §6

PC-3 = experiment: Flow cytometric annexin V/PI analysis of apoptosis, PC-3; format: cell-based, human; conditions: IC50 of compound, 72 h, mean ± SEM
Method: (§7) The apoptosis-dependent […] was determined by quantification of annexin-stained apoptotic cells using the FITC signal detector (FL1) against the phycoerythrin emission signal detector (FL2) (Supplementary Page S55). […]
(§8) MTT method was used for assaying cell viability 25. Twenty microliters of 5 mg/ml MTT (Sigma, USA) was added to each well and the plate was incubated at […]
(§9) 37 °C for 3 h. […]
(§10) Graphpad Instat software.
as §4
as §5, with “values.” for “values. Furthermore, phase contrast inverted microscope with a digital camera (Olympus, Japan) was used for investigating”
(§11) Flow cytometric analysis of apoptosis
(§12) Caco-2, PC-3 and NFS-60 cell lines. After trypsinization, the untreated and treated cells were incubated with annexin V/PI for 15 min. Then cells were fixed and incubated with streptavidin-fluorescein (5 µg/mL) for 15 min. The apoptosis-dependent anticancer effect was determined by quantification of annexin-stained apoptotic cells using the FITC signal detector (FL1) against the phycoerythrin emission signal detector (FL2). […]

NFS-60 = experiment: Flow cytometric annexin V/PI analysis of apoptosis, NFS-60; format: cell-based, human; conditions: IC50 of compound, 72 h, mean ± SEM
Method: as §7, §8, §9, §10, §4
as §5, with “values.” for “values. Furthermore, phase contrast inverted microscope with a digital camera (Olympus, Japan) was used for investigating”
as §11, §12

PIM-1 kinase [3] = biological target: T1, PIM-1 kinase (Homo sapiens, UniProt P11309); experiment: Mechanism of PIM-1 kinase inhibition, Lineweaver–Burk double-reciprocal plot; format: biochemical; set-up: purchased Promega Corporation #V4032
[4] = system: Colon cancer cells (Caco-2); experiment: MTT anticancer activity, Caco-2; format: cell-based, human; conditions: for IC50: Homo sapiens, Caco-2, 72 h, MTT, mean ± SEM; for Caco-2 SI: selectivity index, Wi-38 versus Caco-2
Method: as §1
All final compounds were evaluated against four human cancer cell lines namely; liver cancer (HepG2) (ATCC® HB-8065™), colon cancer (Caco-2) (ATCC® HTB-37™), leukaemia cancer (NFS-60) (ATCC® CRL-1838™), and prostate cancer (PC-3) (ATCC® CRL-1435™) using doxorubicin (Dox) as the reference drug being widely used in tumour management utilising microculture MTT assay, declared by Mosmann[26] (Table 1 in Supplementary Material, Figures 5–8).
(§13) Cytotoxicity of the tested compounds was evaluated using normal human lung fibroblast Wi-38 cell line compared to currently used anticancer drug (doxorubicin).
as §3, with “Firstly, Wi-38 cell line was subcultured in DMEM medium-contained 10% fetal bovine serum (FBS), then, seeded as 5x10^3 cells per well in 96-well cell culture plate and incubated at 37 °C in 5% CO 2 incubator. Serial concentrations of these compounds and doxorubicin (Dox) were incubat ed with Wi-38 cells for 72 h after 24 h for cell attachment. MTT method” for “MTT method”
as §4, §5, §6

[5] = system: prostate cancer cell line (PC-3); experiment: MTT anticancer activity, PC-3; format: cell-based, human; conditions: Homo sapiens, 72 h, PC-3, 72 h, mean ± SEM
Method: as §1, §2, §3, §4, §5, §6

HepG-2 = experiment: Flow cytometric annexin V/PI analysis of apoptosis, HepG-2; format: cell-based, human; conditions: IC50 of compound, 72 h, mean ± SEM
PIM-1 kinase [6] = biological target: T1, PIM-1 kinase; experiment: PIM-1 kinase inhibitory activity (Promega kinase assay kit)
From the text: as §14, §15

[7] = system: normal human lung fibroblast Wi-38 cell line; experiment: MTT cytotoxicity on normal cells; format: cell-based; conditions: Wi-38, 72 h, MTT, mean ± SEM; for EC50: Homo sapiens, 50% cell viability; for Wi-38 EC100: safe dose, 100% cell viability
Method: Cytotoxicity of the tested compounds was evaluated using normal human lung fibroblast Wi-38 cell line compared to currently used anticancer drug (doxorubicin) using MTT method was used for assaying cell viability[26] (Supplementary Page S55).
Cytotoxicity test is one of the biological evaluations and screening tests that use human normal and cancer cells in-vitro to observe the effect of the studied compounds on their growth using MTT-based cytotoxicity. Microculture MTT method[26] was used to determine cytotoxic activity of the newly synthesised compounds against normal human lung fibroblast (Wi-38) using doxorubicin (Dox) as standard anticancer drug. The highest IC50 and EC100 values illustrate that the compounds were safe on the proliferation of normal human cells. […]. page 47:
as §13
as §3, with “Firstly, Wi-38 cell line was subcultured in DMEM medium-contained 10% fetal bovine serum (FBS), then, seeded as 5x10^3 cells per well in 96-well cell culture plate and incubated at 37 °C in 5% CO 2 incubator. Serial concentrations of these compounds and doxorubicin (Dox) were incubat ed with Wi-38 cells for 72 h after 24 h for cell attachment. MTT method” for “MTT method”, “Instat software. […]” for “Instat software.”

T1 sequence (P11309 whole entry): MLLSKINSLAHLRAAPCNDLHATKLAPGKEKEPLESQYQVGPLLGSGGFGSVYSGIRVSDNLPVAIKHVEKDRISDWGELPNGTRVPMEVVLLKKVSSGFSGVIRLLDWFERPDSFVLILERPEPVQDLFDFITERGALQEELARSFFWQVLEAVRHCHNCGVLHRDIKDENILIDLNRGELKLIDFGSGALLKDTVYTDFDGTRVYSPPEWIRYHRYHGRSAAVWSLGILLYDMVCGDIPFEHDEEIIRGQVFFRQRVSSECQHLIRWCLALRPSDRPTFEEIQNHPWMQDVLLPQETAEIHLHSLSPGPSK
Sequence of PIM-2 kinase (Q9P1W9 whole entry): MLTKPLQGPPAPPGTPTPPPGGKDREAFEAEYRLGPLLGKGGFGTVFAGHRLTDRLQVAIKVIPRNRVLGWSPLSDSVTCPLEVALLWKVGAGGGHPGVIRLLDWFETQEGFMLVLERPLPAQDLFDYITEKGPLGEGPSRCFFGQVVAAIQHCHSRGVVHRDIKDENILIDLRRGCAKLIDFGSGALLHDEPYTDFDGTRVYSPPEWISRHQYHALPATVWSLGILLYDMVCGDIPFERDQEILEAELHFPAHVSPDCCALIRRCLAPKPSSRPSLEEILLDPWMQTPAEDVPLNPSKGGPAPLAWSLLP

## COc1ccc2nc(N3CCCCC3)c(-c3cc(-c4cccc(O)c4)nc(S)c3C#N)cc2c1 [6e, 6-(3-Hydroxyphenyl)-4-(6-methoxy-2-(piperidin-1-yl)quinolin-3-yl)-2-mercaptopyridine-3-carbonitrile]
[1]
  IC50: 12.2 ± 0.1 nM
PIM-2 kinase
  IC50: 1490 nM
[2]
  IC50: 53.9 ± 0.1 nM
PC-3
  total percentage of the apoptotic cell population, PC-3: 68.81 ± 0.49%
NFS-60
  total percentage of the apoptotic cell population, NFS-60: 68.385 ± 0.54%
PIM-1 kinase [3]
  mechanism of PIM-1 kinase inhibition: competitive inhibitors
PIM-1 kinase [3]; Y-intercept
  Vmax compared with control: the same Vmax in comparison with control
[4]
  IC50: 27 ± 2 nM
  Caco-2 SI: 5.741
[4]; ligand efficiency from IC50 and number of heavy atoms
  Caco-2 LE: 0.30
[4]; ligand lipophilic efficiency, potency in terms of lipophilicity
  Caco-2 LLE: 2.73
[5]
  IC50: 42.9 ± 3 nM
HepG-2
  total percentage of the apoptotic cell population, HepG-2: 69.02 ± 0.18%
PIM-1 kinase [6]
  IC50: 1100 nM
[7]
  EC50: 155 ± 3 nM
  Wi-38 EC100: 0.0277 ± 0.0001 µM

## COc1ccc2[nH]c(=O)c(-c3cc(-c4cccc(O)c4)nc(S)c3C#N)cc2c1 [14c, 6-(3-Hydroxyphenyl)-2-mercapto-4-(6-methoxy-2-oxo-1,2-dihydroquinolin-3-yl)pyridine-3-carbonitrile]
[1]
  IC50: 55.7 nM
[2]
  IC50: 96.5 ± 4 nM
other
  melting point: 278 to 280 °C
[4]
  IC50: 84.2 ± 5 nM
  Caco-2 SI: 1.971
[5]
  IC50: 62.6 ± 0.1 nM
[7]
  EC50: 166 ± 9 nM
  Wi-38 EC100: 0.0972 ± 0.005 µM

## N#Cc1c(-c2cc3ccccc3[nH]c2=O)cc(-c2cccc(O)c2)nc1N [15a, 2-Amino-6-(3-hydroxyphenyl)-4-(2-oxo-1,2-dihydroquinolin-3-yl)pyridine-3-carbonitrile]
[1]
  IC50: 108 ± 7 nM
[2]
  IC50: 247 ± 16 nM
other
  melting point: > 300 °C
[4]
  IC50: 191 ± 19 nM
  Caco-2 SI: 1.058
[5]
  IC50: 242 ± 37 nM
[7]
  EC50: 202 ± 3 nM
  Wi-38 EC100: 0.0663 ± 0.003 µM

## N#Cc1c(-c2cc3cc(Cl)ccc3[nH]c2=O)cc(-c2cccc(O)c2)nc1N [15b, 2-Amino-4-(6-chloro-2-oxo-1,2-dihydroquinolin-3-yl)-6-(3-hydroxyphenyl)pyridine-3-carbonitrile]
[1]
  IC50: 299 ± 8 nM
[2]
  IC50: 323 ± 7 nM
other
  melting point: > 300 °C
[4]
  IC50: 194 ± 2 nM
  Caco-2 SI: 1.361
[5]
  IC50: 196 ± 61 nM
[7]
  EC50: 264 ± 6 nM
  Wi-38 EC100: 0.169 ± 0.009 µM

## COc1ccc2[nH]c(=O)c(-c3cc(-c4cccc(O)c4)nc(N)c3C#N)cc2c1 [15c, 2-Amino-6-(3-hydroxyphenyl)-4-(6-methoxy-2-oxo-1,2-dihydroquinolin-3-yl)pyridine-3-carbonitrile]
[1]
  IC50: 107 ± 11 nM
[2]
  IC50: 122 ± 1 nM
other
  melting point: 259 to 260 °C
[4]
  IC50: 141 ± 21 nM
  Caco-2 SI: 0.858
[5]
  IC50: 143 ± 13 nM
[7]
  EC50: 121 ± 2 nM
  Wi-38 EC100: 0.101 ± 0.005 µM

## O=c1c(O)c(-c2ccc(O)c(O)c2)oc2cc(O)cc(O)c12 [Quercetin, reference compound]
PIM-2 kinase
  IC50: 610 nM
